Results published in patent publication US20050282745A1, “Non-mammalian GnRH analogs and uses thereof in regulation of fertility and pregnancy” (priority 2001, published 2005).
Read-outs that look alike come from different tables or passages of the source. Non-standard residues stand in square brackets, D forms with d. Residues, ends and D or L forms follow the SMILES beside them. pGlu = O=C1CC[C@@H](C(=O)O)N1; azaGly = NNC(=O)O

Key:
[1] = system: baboon uterine tissue GnRH receptor; test: Baboon uterine tissue GnRH receptor binding
Description: These chicken II GnRH analogs (SEQ ID NO: 2) may have particular applicability for regulation of implantation and in uterine tissue conditions, such as endometriosis, abnormal uterine bleeding, and leiomyomas. Thus, high affinity receptors for chicken II GnRH analogs (SEQ ID NO: 2) have been defined in baboon ovary and uterus tissues.

[2] = system: human placental GnRH receptor; test: Placental GnRH receptor binding, radiolabeled D-Arg(6)-chicken II GnRH-aza-Gly(10)-amide label
Procedure: The newly synthesized non-mammalian GnRH analogs and other commercially available mammalian GnRH analogs were used in placental receptors binding and enzyme stability study described here. On the basis of these studies, the most receptor potent and enzyme-stable analogs were chosen for further biopotency studies. GnRH receptors were purified from the membrane fractions from placentas. The purification procedure for the placental GnRH receptor was performed using a modification of the method described by Bramley et al., which reference is specifically incorporated herein by reference for the purpose. Addition of enzyme inhibitors for the endogenous C-ase-1 were used as well as agents for receptor stabilization. Initially, receptor-binding assays using ^125I-Buserelin as label were performed. The competitive binding of each of the analogs was studied over a dose range of 10^−11 to 10^−6 M. Incubation was at room temperature and receptor bound label was precipitated with polyethylene glycol. Specific and non-specific binding was determined. The data was subjected to Scatchard analysis. The non-mammalian GnRH analogs' ability to bind to the placental GnRH receptor was compared to that for synthetic mammalian GnRH (SEQ ID NO: 5), Buserelin (SEQ ID NO: 10) and other mammalian analogs. […] This way, the receptor affinity for that analog could be precisely determined. Receptors from three different term placentas were used to study each of these analogs. […] Bramley T A, McPhie C A, Menzies G S 1994 Human placental gonadotropin-releasing hormone (GnRH) binding sites: 111. Changes in GnRH binding levels with stage of gestation. Placenta 15:733-745.
In these and additional studies, placental GnRH receptors were purified from human term placentas after homogenization in 40 mM Tris (pH 7.4) and filtered through cheesecloth, followed by an initial centrifugation at 1,000×g for 10 minutes. The resulting supernatant was, again, centrifuged at 35,000×g for 30 minutes and the membrane pellet was collected and resuspended in Tris buffer with 0.3 M sucrose. The protein concentration was determined. Membranes were stored frozen at −20 C until use. Before use, placental membranes were diluted to 5,000 μg/mL with Tris buffer containing 0.5% BSA and 50 U/mL bacitracin. Placental membranes (100 μL) were used with varying concentrations of mammalian GnRH (SEQ ID NO: 5), Buserelin (SEQ ID NO: 10), chicken II GnRH (SEQ ID NO: 6), D-Arg (6)-chicken II GnRH-des-Gly (10)-ethylamide (SEQ ID NO: 2), or D-Arg (6)-chicken II GnRH-aza-Gly (10)-amide (SEQ ID NO: 2) (100 μL) and either radiolabeled Buserelin (SEQ ID NO: 10) or radiolabeled D-Arg (6)-chicken II GnRH-aza-Gly (10)-amide (SEQ ID NO: 2) (100 μL/tube and iodinated). Following incubation at room temperature for 4 hours, the bound and free hormones were separated using polyethylene glycol precipitation, followed by centrifugation. The binding affinity for each GnRH isoform or analog was calculated using the double reciprocal plot of bound versus free ligand. Each study was done using three different human term placental tissues.

- binding affinity, in words [1]: high binding affinity
- binding affinity compared with mammalian GnRH ([2]; analog label): 25 fold
- Kd ([2]; placenta 2 membrane preparation, read-out: affinity constant (Ks)): 0.068 µM
- Kd ([2]; three placental membrane preparations, read-out: average binding affinity): 0.093 ± 0.023 µM
- enhancement of affinity when the analog is used as label ([2]; versus Buserelin label): 2 fold
Structure (SMILES): N=C(N)NCCC[C@@H](NC(=O)[C@H](Cc1c[nH]cn1)NC(=O)[C@H](CO)NC(=O)[C@H](Cc1c[nH]c2ccccc12)NC(=O)[C@H](Cc1c[nH]cn1)NC(=O)[C@@H]1CCC(=O)N1)C(=O)N[C@@H](Cc1c[nH]c2ccccc12)C(=O)N[C@@H](Cc1ccc(O)cc1)C(=O)N1CCC[C@H]1C(=O)NNC(N)=O [D-Arg(6)-chicken II GnRH-aza-Gly(10)-amide] ([pGlu]HWSH[dR]WYP[azaGly]-NH2)
